Measurements: patent US11999669B1, “Nitrogen activator stabilizer for reducing and protecting nitrogen fertilizer” (KING FAISAL UNIVERSITY, priority 2023, dated 2024)

Experiment: Dissolution of ABT-PNB in water
Type: physicochemical
Protocol: Referring to Scheme 2 above, reaction of 0.2 mmol ethyl cyanoacetate with 0.2 mmol thiourea under MW-US condition for 5 min afforded compound 1. One pot reaction of 0.1 mmole of the compound (1) with 0.1 mmole of 2-nitro-6-cyanobenzoic acid (2) in boiling 2 mL ethanol under MW reaction condition for 10 min afforded 6-(imidazo[4,5-d]pyrimidin-2yl) benzoic acid derivative 3. Reflux reaction of the 0.01 mol compound 3 with 0.02 mole ethylchloroacetate in 10 mL acetone for 5 h afforded the ester 4. US promoted reaction of the 0.01 mol of the compound 4 was allowed to react with 0.01 mol of 4-(dimethylamino)butylchloride, thereby affording the desired fertilized ionic liquid ABT-PNB.

- solubility in water: easily dissolved in water
Compound: CCOC(=O)CSc1nc2c(=O)n(CCCCN(C)C)c(-c3cccc([N+](=O)[O-])c3C(=O)O)nc2[nH]1 [ABT-PNB, 2-(1-(4-(dimethylamino)butyl)-8-((2-ethoxy-2-oxoethyl)thio)-6-oxo-6,9-dihydro-1H-purin-2-yl)-6-nitrobenzoic acid]
